Source: patent US4065570A (priority 1975, dated 1977)
Where two headings read alike, the source gives them in different places.

Key:
[1] = system: Mahoney strain of Polio virus; type: in vivo, Cynomolgus monkey
[2] = system: Polio I; experiment: organism not typed; type: cell-based; conditions: Vero
[3] = system: Cynomolgus monkeys; conditions: cynomolgus monkey, in vivo, 25 mg/kg/day
[4] = system: mice; experiment: LD50 in mice; type: in vivo
[5] = system: Echo 9; type: cell-based; conditions: Echo 9, Vero, 31.6 TCID50
Experimental: (§1) In preparing the compounds for testing, they were handled aseptically throughout. The compounds were dissolved in a minimum amount of a suitable solvent, and the final dilutions were made up to the required volume in a complete culture medium in a concentration not exceeding the predetermined maximum non-cytotoxic levels.
(§2) The cell cultures used in all primary in vitro antipicorna virus screening tests were an established cell line of the African green monkey kidney (VERO), a primary cell culture of the Cercopythecus monkey kidney, or human embryonic lung diploid cells WI-38.
(§3) Standard batches of the viruses were made by growing the virus in an appropriate cell culture and then making a pool which was dispersed in ampoules and kept frozen at -76° C until used. The titer of each virus was determined in the cell cultures used.
(§4) The cells were grown in test tubes in a suitable medium. Immediately before use the initial medium was replaced with the one which contained the test compound in an appropriate concentration. After the virus was added, the infected culture was incubated at 37° C for a number of days and the cytopathic effect of the virus observed and recorded. The results were read every day in all of the tubes and the destruction of cells assessed in precentage of the cell sheet destroyed: 0-25-50-75-100%. As controls, cells with only virus (for cytopathic effect) or with only the compound (for cytotoxic effect) were used as well as the normal, uninfected cells (no cytotoxic -- no cytopathic effects).
(§5) Net difference in cytopathic effect between treated and control tubes expressed in percentage give the extent of the inhibitory activity of the substance.
(§6) The TCID50 represents the tissue culture infective dose of virus that will destroy 50% of the cells.

[6] = system: Echo 11; type: cell-based; conditions: Echo 11, Primary Monkey Kidney Cells, 178 TCID50
Experimental: as §1, §2, §3, §4, §5, §6

[7] = system: viruses of the Picorna group; experiment: antiviral activity (general statements); type: cell-based; conditions: result in words
Experimental: The in vitro activity of representative compounds of the present invention are set forth below.
as §1, §2, §4, §5

[8] = system: primary monkey kidney cells; experiment: cytotoxicity against primary monkey kidney cells; type: cell-based, Cercopythecus monkey; conditions: for Toxicity (%): pMK
Experimental: as §1, §2
(§7) The cytotoxic stuides were performed on each of the compounds to determine the level of response of the cells used to the potentially toxic action of the substances.
as §4

[9] = system: Vero cells; experiment: cytotoxicity against Vero cells; type: cell-based, African green monkey; conditions: for Toxicity (%): Vero
Experimental: as §1, §2, §7, §4

[10] = Virus + Substance, 25 mg/kg/day, i.p. or s.c.
[11] = Virus + Substance, 25 mg/kg/day, 4th Day
[12] = Virus + Substance, 25 mg/kg/day, 8th Day
[13] = Virus + Substance, 25 mg/kg/day, 11th Day
[14] = Virus + Substance, 25 mg/kg/day, 15th Day

Acetylated 5-(3',4',-Dimethoxybenzal) hydantoin [Example 14]
effectiveness against the Mahoney Polio virus strain in the infected animals ([1]; Cynomolgus monkeys, result in words): effective against the Mahoney Polio virus strain in the infected animals
Average Day of Paralysis [1, 10]: 13.5
Cumulative morbidity, paralyses, % [1, 10]: 25.0%
Cumulative morbidity, paralyses, No. [1, 10]: 2/8
Histopathological changes as brain, % [1, 10]: 20.0%
Histopathological changes as brain, No. [1, 10]: 2/10
Presence of poliovirus in rectal, % [1, 11]: 36.4%
Presence of poliovirus in rectal, No. [1, 11]: 4/11
Presence of poliovirus in rectal, % [1, 12]: 25.0%
Presence of poliovirus in rectal, No. [1, 12]: 2/8
Presence of poliovirus in rectal, % [1, 13]: 25.0%
Presence of poliovirus in rectal, No. [1, 13]: 2/8
Presence of poliovirus in rectal, % [1, 14]: 16.7%
Presence of poliovirus in rectal, No. [1, 14]: 1/6
% Inhibition ([2]; 316 TCID50, 0.5 μg/ml): 93%
% Inhibition ([2]; 316 TCID50, 1 μg/ml): 100%
% Inhibition ([2]; 316 TCID50, 5 μg/ml): 100%
% Inhibition ([2]; 316 TCID50, 10 μg/ml): 100%
Cumulative morbidity, paralyses, % [3]: 0%
Cumulative morbidity, paralyses, No. [3]: 0/5
Histopathological changes as brain, % [3]: 0%
Histopathological changes as brain, No. [3]: 0/5
subacute LD50 ([4]; intraperitoneal, daily injection during 16 days): 400 to 500 mg/kg
LD50 ([4]; oral administration): greater than 1,300 mg/kg
% Inhibition ([5]; 0.1 μg/ml): 8%
% Inhibition ([5]; 0.3 μg/ml): 29%
% Inhibition ([5]; 0.7 μg/ml): 42%
% Inhibition ([5]; 1.0 μg/ml): 71%
% Inhibition ([5]; 3.3 μg/ml): 92%
% Inhibition ([5]; 6.7 μg/ml): 100%
% Inhibition ([5]; 10.0 μg/ml): 100%
% Inhibition ([6]; 0.1 μg/ml): 7%
% Inhibition ([6]; 0.3 μg/ml): 32%
% Inhibition ([6]; 0.7 μg/ml): 32%
% Inhibition ([6]; 1.0 μg/ml): 68%
% Inhibition ([6]; 3.3 μg/ml): 100%
% Inhibition ([6]; 6.7 μg/ml): 100%
% Inhibition ([6]; 10 μg/ml): 100%
% Inhibition ([6]; 25 μg/ml): 100%
% Inhibition ([6]; 50 μg/ml): 100%
% Inhibition ([6]; 100 μg/ml): 100%
degree of antiviral activity [7]: greater degree of antiviral activity than the unacetylated compound
Cytotoxicity CTD50 ([8]; Primary Monkey Kidney Cells, 50% inhibition of the cell growth): > 100 µg/mL
Cytotoxicity CTD0 ([8]; Primary Monkey Kidney Cells, maximal non-toxic concentration): > 100 µg/mL
Toxicity (%) ([8]; 0.1 micrograms/ml): 0%
Toxicity (%) ([8]; 0.3 micrograms/ml): 0%
Toxicity (%) ([8]; 0.7 micrograms/ml): 0%
Toxicity (%) ([8]; 1.0 micrograms/ml): 0%
Toxicity (%) ([8]; 3.3 micrograms/ml): 0%
Toxicity (%) ([8]; 6.7 micrograms/ml): 0%
Toxicity (%) ([8]; 10 micrograms/ml): 0%
Toxicity (%) ([8]; 25 micrograms/ml): 0%
Toxicity (%) ([8]; 33.3 micrograms/ml): 0%
Toxicity (%) ([8]; 50 micrograms/ml): 0%
Toxicity (%) ([8]; 66.7 micrograms/ml): 0%
Toxicity (%) ([8]; 75 micrograms/ml): 0%
Toxicity (%) ([8]; 100 micrograms/ml): 0%
Toxicity (%) ([8]; 150 micrograms/ml): 10%
Toxicity (%) ([8]; 200 micrograms/ml): 75%
Toxicity (%) ([8]; 250 micrograms/ml): 100%
Toxicity (%) ([8]; 300 micrograms/ml): 100%
Cytotoxicity CTD50 ([9]; Vero cells, 50% inhibition of the cell growth): > 100 µg/mL
Cytotoxicity CTD0 ([9]; Vero cells, maximal non-toxic concentration): > 10 µg/mL
Toxicity (%) ([9]; 0.1 micrograms/ml): 0%
Toxicity (%) ([9]; 0.3 micrograms/ml): 0%
Toxicity (%) ([9]; 0.7 micrograms/ml): 0%
Toxicity (%) ([9]; 1.0 micrograms/ml): 0%
Toxicity (%) ([9]; 3.3 micrograms/ml): 0%
Toxicity (%) ([9]; 6.7 micrograms/ml): 0%
Toxicity (%) ([9]; 10 micrograms/ml): 10%
Toxicity (%) ([9]; 25 micrograms/ml): 10%
Toxicity (%) ([9]; 33.3 micrograms/ml): 10%
Toxicity (%) ([9]; 50 micrograms/ml): 10%
Toxicity (%) ([9]; 66.7 micrograms/ml): 10%
Toxicity (%) ([9]; 75 micrograms/ml): 10%
Toxicity (%) ([9]; 100 micrograms/ml): 10%
Toxicity (%) ([9]; 150 micrograms/ml): 10%
Toxicity (%) ([9]; 200 micrograms/ml): 25%
Toxicity (%) ([9]; 250 micrograms/ml): 75%
Toxicity (%) ([9]; 300 micrograms/ml): 100%
